Where “and” joins values, the source holds several entries; their conditions need not be identical. Equal values may be shown once. Read-outs that look alike come from different tables or passages of the source.
Tests used:
KDR (VEGFR-2) = molecular target: T1, KDR (VEGFR-2) (Homo sapiens, UniProt P35968); assay: ADP-Glo kinase assay, KDR; assay type: biochemical
T1 construct: purchased Promega

Aurora B = molecular target: T2, Aurora B (Homo sapiens, UniProt Q96GD4); assay: ADP-Glo kinase assay, Aurora B; assay type: biochemical
T2 construct: purchased Promega
T2 sequence (Q96GD4 whole entry): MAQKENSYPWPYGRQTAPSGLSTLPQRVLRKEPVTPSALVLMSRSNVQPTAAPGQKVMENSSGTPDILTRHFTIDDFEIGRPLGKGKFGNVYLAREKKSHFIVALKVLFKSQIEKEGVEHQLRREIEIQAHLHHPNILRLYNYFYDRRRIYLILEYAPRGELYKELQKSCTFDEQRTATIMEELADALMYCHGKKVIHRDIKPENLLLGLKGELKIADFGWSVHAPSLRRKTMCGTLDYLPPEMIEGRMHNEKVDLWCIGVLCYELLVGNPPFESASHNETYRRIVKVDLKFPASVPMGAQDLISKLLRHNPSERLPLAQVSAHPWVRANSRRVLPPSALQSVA
Protocol: (§1) The ADP-Glo kinase assay (Promega, Madison, WI, USA) was used to screen compounds 5, 8–10, 14, 17, 19 and 24 for the tyrosine kinase (Kinase Selectivity Profiling System TK-1, Promega, Madison, WI, USA) and serine/threonine kinase (Kinase Selectivity Profiling System Other/CK-1, Promega, Madison, WI, USA) inhibition effects according to the manufacturer’s technical manual. The luminescence data were analyzed as described in our prior work.
(§2) The selectivity of the potential kinase inhibitor against a specific protein kinase or a specific family of kinases was investigated using the Kinase Selectivity Profiling System TK-1, Other/CK-1 and ADP-Glo™ Kinase assay kit (Promega, Madison, WI, USA).

[1] = molecular target: T3, IGF1R (insulin-like growth factor 1 receptor) (Homo sapiens, UniProt P08069); assay: ADP-Glo kinase assay, IGF1R; assay type: biochemical
T3 construct: purchased Promega
Protocol: as §1, §2

K562 cell line = assay: ROS determination (DCFH-DA, flow cytometry); assay type: cell-based; settings: 48 h
Protocol: The redox status was assessed using the K562 cell line. […] Then, the cells were washed to remove the 2′,7′-dichlorodihydrofluorescein diacetate by centrifugation at 1000 rpm for 5 min. The measurements were conducted using a Cytomics FC500 Beckman Coulter flow cytometer (FL1 channel for DCF).

HER4 = molecular target: T4, HER4 (Homo sapiens, UniProt Q15303); assay: ADP-Glo kinase assay, HER4; assay type: biochemical
T4 construct: purchased Promega
T4 sequence (Q15303 26-1308): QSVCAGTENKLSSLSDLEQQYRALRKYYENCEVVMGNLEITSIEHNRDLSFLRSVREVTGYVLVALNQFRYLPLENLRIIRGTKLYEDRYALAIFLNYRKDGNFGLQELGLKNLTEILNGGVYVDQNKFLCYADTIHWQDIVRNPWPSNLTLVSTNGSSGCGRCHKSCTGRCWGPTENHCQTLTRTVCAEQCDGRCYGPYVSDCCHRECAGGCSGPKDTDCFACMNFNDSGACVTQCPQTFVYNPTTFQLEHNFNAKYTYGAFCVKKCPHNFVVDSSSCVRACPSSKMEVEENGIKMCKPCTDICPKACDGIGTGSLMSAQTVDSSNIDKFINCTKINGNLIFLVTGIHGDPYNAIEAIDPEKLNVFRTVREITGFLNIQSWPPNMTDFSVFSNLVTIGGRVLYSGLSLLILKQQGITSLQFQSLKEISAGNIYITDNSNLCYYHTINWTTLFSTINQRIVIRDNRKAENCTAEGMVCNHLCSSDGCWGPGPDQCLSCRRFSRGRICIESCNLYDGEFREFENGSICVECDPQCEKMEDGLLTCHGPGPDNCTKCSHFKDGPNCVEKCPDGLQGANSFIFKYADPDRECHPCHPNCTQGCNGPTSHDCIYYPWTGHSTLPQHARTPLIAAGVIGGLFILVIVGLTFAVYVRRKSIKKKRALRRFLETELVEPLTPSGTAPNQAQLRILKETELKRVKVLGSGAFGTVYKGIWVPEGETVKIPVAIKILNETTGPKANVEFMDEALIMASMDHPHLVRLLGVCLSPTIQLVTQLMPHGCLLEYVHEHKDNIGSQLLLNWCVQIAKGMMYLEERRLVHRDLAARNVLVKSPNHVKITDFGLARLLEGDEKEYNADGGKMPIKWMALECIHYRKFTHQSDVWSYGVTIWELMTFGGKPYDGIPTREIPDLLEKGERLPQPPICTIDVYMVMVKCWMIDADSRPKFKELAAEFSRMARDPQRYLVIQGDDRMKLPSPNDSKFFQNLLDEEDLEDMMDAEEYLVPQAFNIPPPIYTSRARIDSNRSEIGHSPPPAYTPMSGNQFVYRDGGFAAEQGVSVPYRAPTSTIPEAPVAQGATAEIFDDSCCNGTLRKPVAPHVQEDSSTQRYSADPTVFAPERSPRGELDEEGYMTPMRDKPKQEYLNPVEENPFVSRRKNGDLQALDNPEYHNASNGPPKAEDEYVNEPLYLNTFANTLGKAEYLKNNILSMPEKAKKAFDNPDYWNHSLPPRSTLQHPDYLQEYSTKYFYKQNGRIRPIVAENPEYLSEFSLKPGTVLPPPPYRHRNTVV
Protocol: as §1, §2

[2] = tested on: HepG2 (human liver cancer); assay: MTT cell proliferation assay, HepG2; assay type: cell-based; settings: HepG2, 72 h of exposition, read-out: Anti-proliferative activity IC50, HepG2
Summary of the method: (§3)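 Cells from six cancer lines were exposed to compounds, then viability was read by MTT reduction. Half-maximal inhibitory concentrations were calculated, and RPMI 1788 B lymphocytes were tested in parallel as non-cancer controls.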

InsR (insulin receptor) = molecular target: T5, InsR (insulin receptor) (Homo sapiens, UniProt P06213); assay: ADP-Glo kinase assay, InsR; assay type: biochemical
T5 construct: purchased Promega
Protocol: as §1, §2

K562 cells [3] = assay: Annexin V-FITC/PI apoptosis assay; assay type: cell-based; settings: 48 h
Protocol: K562 tumor cells were plated on a 6-well plate at a density of 400,000 per well. Test compounds 5, 14 and 15 were added at concentrations of 1, 5 and 10 μM in duplicate for 48 h. The methodology and analysis of the obtained data were performed as described in our prior work.
The effects of compounds 5, 14 and 15 on cell apoptosis were examined using the Annexin V-FITC Kit (Beckman Coulter, Brea, CA, USA) according to the protocols provided. The Annexin V-FITC Kit is an apoptosis detection kit based on the binding properties of annexin V to phosphatidylserine (PS) and on the DNA intercalating capability of propidium iodide (PI). K562 cells were treated with compound 5, 14 and 15 at 1, 5 and 10 μM for 48 h, after which annexin V/PI binding was measured by flow cytometry.

[4] = tested on: OKP-GS (renal cell carcinoma); assay: MTT cell proliferation assay, OKP-GS; assay type: cell-based; settings: 72 h of exposition, read-out: Anti-proliferative activity IC50, OKP-GS
Summary of the method: as §3

A549 (lung carcinoma) = assay: MTT cell proliferation assay, A549; assay type: cell-based; settings: Homo sapiens, A549, 72 h of exposition, read-out: Anti-proliferative activity IC50, A549
Summary of the method: as §3

Aurora A = molecular target: T6, Aurora A (Homo sapiens, UniProt O14965); assay: ADP-Glo kinase assay, Aurora A; assay type: biochemical
T6 construct: purchased Promega
T6 sequence (O14965 1-403): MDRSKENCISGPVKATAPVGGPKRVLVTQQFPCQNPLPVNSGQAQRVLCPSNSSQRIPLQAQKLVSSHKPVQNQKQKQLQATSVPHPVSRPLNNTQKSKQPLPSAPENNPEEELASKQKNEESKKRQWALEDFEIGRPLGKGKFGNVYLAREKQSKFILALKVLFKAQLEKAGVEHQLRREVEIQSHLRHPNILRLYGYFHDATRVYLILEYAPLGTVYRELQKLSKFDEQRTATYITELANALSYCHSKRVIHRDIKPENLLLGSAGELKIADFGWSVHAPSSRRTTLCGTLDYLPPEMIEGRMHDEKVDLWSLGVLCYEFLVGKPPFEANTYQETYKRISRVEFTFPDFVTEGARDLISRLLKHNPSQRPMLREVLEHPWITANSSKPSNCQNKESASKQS
Protocol: as §1, §2

HER2 = molecular target: T7, HER2 (Homo sapiens, UniProt P04626); assay: ADP-Glo kinase assay, HER2; assay type: biochemical
T7 construct: purchased Promega
Protocol: as §1, §2

[5] = tested on: K562 (chronic myelogenous leukemia); assay: MTT cell proliferation assay, K562; assay type: cell-based; settings: Homo sapiens, K562, 72 h of exposition, read-out: Anti-proliferative activity IC50, K562
Summary of the method: as §3

PDGFRα = molecular target: T8, PDGFRα (Homo sapiens, UniProt P16234); assay: ADP-Glo kinase assay, PDGFRα; assay type: biochemical
T8 construct: purchased Promega
T8 sequence (P16234 24-1089): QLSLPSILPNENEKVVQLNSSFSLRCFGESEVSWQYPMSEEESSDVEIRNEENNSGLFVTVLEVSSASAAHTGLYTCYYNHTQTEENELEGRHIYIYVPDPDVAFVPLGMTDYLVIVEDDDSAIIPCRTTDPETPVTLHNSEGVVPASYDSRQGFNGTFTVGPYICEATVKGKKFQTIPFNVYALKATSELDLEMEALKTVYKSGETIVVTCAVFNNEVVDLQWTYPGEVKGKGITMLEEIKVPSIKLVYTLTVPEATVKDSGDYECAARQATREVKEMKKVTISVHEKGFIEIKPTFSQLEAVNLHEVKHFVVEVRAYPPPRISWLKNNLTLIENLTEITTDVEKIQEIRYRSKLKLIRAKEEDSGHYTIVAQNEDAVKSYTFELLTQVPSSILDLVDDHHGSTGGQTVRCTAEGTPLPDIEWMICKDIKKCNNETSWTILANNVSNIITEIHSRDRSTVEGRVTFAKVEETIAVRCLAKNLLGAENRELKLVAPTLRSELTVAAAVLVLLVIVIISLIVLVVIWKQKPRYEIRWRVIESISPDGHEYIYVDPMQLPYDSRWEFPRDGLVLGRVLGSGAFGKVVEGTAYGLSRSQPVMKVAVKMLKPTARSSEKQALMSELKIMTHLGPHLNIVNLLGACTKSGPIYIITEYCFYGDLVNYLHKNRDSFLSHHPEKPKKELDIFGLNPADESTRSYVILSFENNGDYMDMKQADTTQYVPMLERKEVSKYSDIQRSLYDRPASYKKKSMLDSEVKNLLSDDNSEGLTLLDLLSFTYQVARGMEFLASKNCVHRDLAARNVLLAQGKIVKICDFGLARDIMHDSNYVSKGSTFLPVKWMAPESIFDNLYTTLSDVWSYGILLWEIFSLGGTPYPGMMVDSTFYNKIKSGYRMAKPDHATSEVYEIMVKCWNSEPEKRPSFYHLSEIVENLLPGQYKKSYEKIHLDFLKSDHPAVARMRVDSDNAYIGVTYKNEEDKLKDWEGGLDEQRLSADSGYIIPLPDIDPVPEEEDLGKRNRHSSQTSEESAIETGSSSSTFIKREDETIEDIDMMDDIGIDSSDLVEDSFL
Protocol: as §1, §2

[6] = tested on: HL-60 (promyelocytic leukemia); assay: MTT cell proliferation assay, HL-60; assay type: cell-based; settings: Homo sapiens, HL-60, 72 h of exposition, read-out: Anti-proliferative activity IC50, HL-60
Summary of the method: as §3

[7] = tested on: MCF-7 (breast adenocarcinoma); assay: MTT cell proliferation assay, MCF-7; assay type: cell-based; settings: Homo sapiens, MCF7, MCF-7, 72 h of exposition, read-out: Anti-proliferative activity IC50, MCF-7
Summary of the method: as §3

EGFR = molecular target: T9, EGFR (Homo sapiens, UniProt P00533); assay: ADP-Glo kinase assay, EGFR; assay type: biochemical
T9 construct: purchased Promega

[8] = tested on: RPMI 1788 cells (B lymphocyte, human); assay: MTT cell proliferation assay, normal RPMI 1788 cells; assay type: cell-based; settings: normal human lymphoblastoid cells RPMI 1788, 72 h of exposition, read-out: Anti-proliferative activity IC50, RPMI 1788
Summary of the method: as §3

PDGFRβ = molecular target: T10, PDGFRβ (Homo sapiens, UniProt P09619); assay: ADP-Glo kinase assay, PDGFRβ; assay type: biochemical
T10 construct: purchased Promega
T10 sequence (P09619 33-1106): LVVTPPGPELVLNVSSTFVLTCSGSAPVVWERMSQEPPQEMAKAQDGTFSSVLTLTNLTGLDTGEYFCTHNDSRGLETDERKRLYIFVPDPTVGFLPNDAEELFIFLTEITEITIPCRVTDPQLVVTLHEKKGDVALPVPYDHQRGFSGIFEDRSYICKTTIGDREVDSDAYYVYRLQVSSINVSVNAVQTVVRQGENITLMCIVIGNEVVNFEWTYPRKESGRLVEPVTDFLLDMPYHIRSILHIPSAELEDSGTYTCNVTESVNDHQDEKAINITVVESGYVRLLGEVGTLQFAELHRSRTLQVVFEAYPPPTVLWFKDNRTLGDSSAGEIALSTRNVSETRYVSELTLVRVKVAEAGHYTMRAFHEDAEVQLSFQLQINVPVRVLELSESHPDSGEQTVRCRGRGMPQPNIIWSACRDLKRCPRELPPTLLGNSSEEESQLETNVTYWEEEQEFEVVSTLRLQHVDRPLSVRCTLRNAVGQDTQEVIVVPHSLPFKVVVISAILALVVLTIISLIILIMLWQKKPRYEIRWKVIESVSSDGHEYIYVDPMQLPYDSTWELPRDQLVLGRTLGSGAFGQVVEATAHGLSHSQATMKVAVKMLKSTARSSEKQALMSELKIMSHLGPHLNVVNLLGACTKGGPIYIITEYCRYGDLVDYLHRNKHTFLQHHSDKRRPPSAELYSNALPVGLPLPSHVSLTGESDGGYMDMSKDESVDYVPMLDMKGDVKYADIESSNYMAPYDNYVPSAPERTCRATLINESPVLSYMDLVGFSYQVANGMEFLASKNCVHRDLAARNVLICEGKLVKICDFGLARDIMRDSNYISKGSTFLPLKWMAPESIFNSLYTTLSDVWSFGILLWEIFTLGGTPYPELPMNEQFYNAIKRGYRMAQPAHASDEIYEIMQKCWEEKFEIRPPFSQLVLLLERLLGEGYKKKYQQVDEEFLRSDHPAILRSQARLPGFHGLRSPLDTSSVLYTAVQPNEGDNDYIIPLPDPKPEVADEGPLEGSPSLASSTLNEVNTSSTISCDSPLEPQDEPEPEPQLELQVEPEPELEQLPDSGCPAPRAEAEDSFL
Protocol: as §1, §2

K562 cells [9] = assay: Cell cycle analysis (propidium iodide, flow cytometry); assay type: cell-based; settings: 48 h
Protocol: Tumor cells were seeded on a 6-well plate at a density of 400,000 per well for K562. Test compounds 5, 14 and 15 were added at concentrations of 1, 5 and 10 μM in duplicate for 48 h. The methodology and analysis of the obtained data were performed as described in our prior work.
As shown above, compounds 5, 14 and 15 had significant antiproliferative activities, which is why their influences on the cell cycle and apoptosis level were determined, with the aim of understanding whether these effects are cytostatic or cytotoxic. In the cell cycle experiments, K562 cells were used. […] For the determination of changes in the distribution of cells in the phases of the cell cycle, the widely employed method of staining the cells with propidium iodide was used.

T1 sequence (P35968 20-1356): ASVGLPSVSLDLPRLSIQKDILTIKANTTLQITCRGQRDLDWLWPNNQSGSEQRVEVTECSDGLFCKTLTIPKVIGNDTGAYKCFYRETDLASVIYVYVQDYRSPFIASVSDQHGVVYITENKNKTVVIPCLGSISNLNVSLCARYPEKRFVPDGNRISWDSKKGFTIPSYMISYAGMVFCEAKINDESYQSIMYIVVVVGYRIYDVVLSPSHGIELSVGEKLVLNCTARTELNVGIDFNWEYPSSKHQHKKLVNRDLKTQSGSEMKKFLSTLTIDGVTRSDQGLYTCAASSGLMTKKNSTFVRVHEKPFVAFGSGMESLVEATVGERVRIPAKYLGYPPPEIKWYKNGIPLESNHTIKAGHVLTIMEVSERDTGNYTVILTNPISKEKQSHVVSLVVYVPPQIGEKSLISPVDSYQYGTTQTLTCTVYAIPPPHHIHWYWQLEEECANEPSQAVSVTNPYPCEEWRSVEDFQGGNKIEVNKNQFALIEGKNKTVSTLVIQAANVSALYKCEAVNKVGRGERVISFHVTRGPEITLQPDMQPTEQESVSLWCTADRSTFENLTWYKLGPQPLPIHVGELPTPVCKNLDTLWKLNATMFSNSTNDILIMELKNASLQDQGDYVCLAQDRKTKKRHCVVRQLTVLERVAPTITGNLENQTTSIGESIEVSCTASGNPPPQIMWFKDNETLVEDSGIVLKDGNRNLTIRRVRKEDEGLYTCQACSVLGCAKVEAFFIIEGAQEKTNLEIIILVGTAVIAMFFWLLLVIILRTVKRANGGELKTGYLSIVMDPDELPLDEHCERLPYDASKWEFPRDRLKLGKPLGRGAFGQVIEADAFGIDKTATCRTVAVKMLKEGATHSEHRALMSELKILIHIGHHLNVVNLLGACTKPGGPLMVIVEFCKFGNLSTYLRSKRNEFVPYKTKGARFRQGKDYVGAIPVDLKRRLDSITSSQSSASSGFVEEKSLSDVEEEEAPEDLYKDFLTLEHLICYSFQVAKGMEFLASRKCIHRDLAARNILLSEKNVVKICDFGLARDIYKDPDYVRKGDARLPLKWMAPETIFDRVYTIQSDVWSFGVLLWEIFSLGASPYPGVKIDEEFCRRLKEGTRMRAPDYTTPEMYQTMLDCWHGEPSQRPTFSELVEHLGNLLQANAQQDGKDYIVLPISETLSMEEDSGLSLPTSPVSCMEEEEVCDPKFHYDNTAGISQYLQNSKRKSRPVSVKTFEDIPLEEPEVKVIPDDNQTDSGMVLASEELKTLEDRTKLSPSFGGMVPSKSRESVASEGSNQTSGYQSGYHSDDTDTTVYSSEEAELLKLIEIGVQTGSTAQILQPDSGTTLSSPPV

For `Cc1cn(-c2cc(NC(=O)c3cccc(C(=O)Nc4cccc(C(F)(F)F)c4)c3)cc(C(F)(F)F)c2)cn1` [Compound 5, N1-(3-(4-methyl-1H-imidazol-1-yl)-5-(trifluoromethyl)phenyl)-N3-(3-(trifluoromethyl)phenyl)isophthalamide], the inhibition at 10 µM (KDR (VEGFR-2)) was 18%, the inhibition at 10 µM (Aurora B) was 0% and the inhibition at 10 µM [1] was 0%. For the same compound, the “ROS Level, % of Control” value (K562 cell line; K562, 5 µM) was 76.76 % of Control, the “ROS Level, % of Control” value (K562 cell line; K562, 10 µM) was 64.66 % of Control and the “ROS Level, % of Control” value (K562 cell line; K562, 20 µM, 20 µM) was 62.9 % of Control. For the same compound, the inhibition at 10 µM (HER4) was 0%, the IC50 [2] was 7.84 ± 2.61 µM and the IC50 ([2]; Homo sapiens, HepG2, 72 h) was 8.84 µM. For the same compound, the inhibition at 10 µM (InsR (insulin receptor)) was 0%, the “normal live cells (living cells)” value (K562 cells [3]; K562, 1 µM) was 79.72% and the early apoptotic cells (K562 cells [3]; K562, 5 µM) was 29.07%. The late apoptotic cells (K562 cells [3]; K562, 5 µM) was 19.93%, the “normal live cells (living cells)” value (K562 cells [3]; K562, 5 µM) was 48.87% and the necrotic cells (K562 cells [3]; K562, 10 µM) was 16.38%. For the same compound, the “normal live cells (living cells)” value (K562 cells [3]; K562, 10 µM) was 38.66%, the IC50 [4] was 17.8 ± 2.13 µM and the IC50 (A549 (lung carcinoma)) was over 50 µM. The inhibition at 10 µM (Aurora A) was 0%, the inhibition at 10 µM (HER2) was 33% and the IC50 [5] was 3.42 ± 0.78 µM. The inhibition at 10 µM (PDGFRα) was 73%, the IC50 [6] was 7.04 ± 0.29 µM and the IC50 [7] was 4.91 ± 1.27 µM. The inhibition at 10 µM (EGFR) was 0%, the IC50 [8] was 2.86 ± 0.09 µM and the inhibition at 10 µM (PDGFRβ) was 18%. The “Apoptosis, % (cell cycle analysis)” value (K562 cells [9]; K562, 1 µM) was 14.56%, the “G1, %” value (K562 cells [9]; K562, 1 µM) was 37.92% and the “G2/M, %” value (K562 cells [9]; K562, 1 µM) was 45.08%. For the same compound, the “S, %” value (K562 cells [9]; K562, 1 µM) was 17.0% and 17.01%, the “Apoptosis, % (cell cycle analysis)” value (K562 cells [9]; K562, 5 µM) was 37.20% and the “G1, %” value (K562 cells [9]; K562, 5 µM) was 31.77%. For the same compound, the “G2/M, %” value (K562 cells [9]; K562, 5 µM) was 50.09%, the “S, %” value (K562 cells [9]; K562, 5 µM) was 18.14% and the “Apoptosis, % (cell cycle analysis)” value (K562 cells [9]; K562, 10 µM) was 53.50%. For the same compound, the “G1, %” value (K562 cells [9]; K562, 10 µM) was 29.86%, the “G2/M, %” value (K562 cells [9]; K562, 10 µM) was 38.0% and 38.08% and the “S, %” value (K562 cells [9]; K562, 10 µM) was 32.05%.
